Measurements published in article PMC4701221, “Novel Promising Estrogenic Receptor Modulators: Cytotoxic and Estrogenic Activity of Benzanilides and Dithiobenzanilides” (PLoS ONE, 2016).
Entries after “also recorded” stand apart in the source; their conditions may differ.

Columns and labels:
MCF-7 cells [1] = assay: Sulphorodamine B assay, MCF-7; assay type: cell-based, human; settings: 72 h, Fig 2
Method: In addition to the MTT assay, cell viability was measured by the Sulphorodamine B assay according to Vichai and Kirtikara. The MCF-7 and MDA-MB-23 cells were seeded and treated as for the MTT assay. After incubation the medium was removed and the cells were fixed with cold (4°C) trichloroacetic acid (final concentration 10%) for 1h. Than plates were washed 4 times with water and stained for 30 min, following by staining with sulforhodamine B (SRB) 0.4% in 1% acetic acid solution at room temperature for 20 min. After staining, the SRB solution was removed and the plates washed 5 times with 1% acetic acid dried. Bound SRB was solubilized with 200 μl 10 mM unbuffered Tris-base solution and plates were shaked for 10 min. The absorbance at 510 nm was measured using a plate reader (Biotek Instruments, Elx-800).

MCF-7 cells [2] = assay: MTT assay, MCF-7; assay type: cell-based, human
Method: The cell lines used in the cytotoxicity study, besides MCF-12A, were purchased from European Collection of Cell Culture (ECACC, Salisbury, UK): HEK293 (human embryonic kidney, ATTC no. CRL-1573), A549 (Human lung carcinoma, ECACC no. 86012804), CCD39Lu (Human lung fibroblasts, ECACC no. 90110512), MCF-7 (Human breast adenocarcinoma, ECACC no. 86012803) and MDA-MB-231 (Human breast adenocarcinoma ECACC no. 92020424). Cell lines were cultured in DMEM medium without phenol red and supplemented with 10% (v/v) FBS, 1% penicillin-streptomycin and 1% L-glutamine. MCF-12A (ATTC no. […]) was purchased from American Type Culture Collection (ATCC Manassas, VA 20110 USA). MCF-12A cells were kept in 1:1 mixture of Dulbecco’s modified Eagle’s medium and Ham’s F12 medium, 20 ng/ml human epidermal growth factor, 100 ng/ml cholera toxin, 0.01 mg/ml bovine insulin, 500 ng/ml hydrocortisone and 5% horse serum. All cell lines were cultured at 37°C, in a humidified atmosphere containing 5% CO2.
Compounds were dissolved in DMSO to the final concentration of […]. A549, CCD39Lu, MCF-7, MDA-MB-231 and MCF-12A cells were seeded in 96 wells plates at density 2x10^4 cells/well and incubated overnight as described above. Subsequently, cells were treated with tested compounds at concentrations: 100 μM; 50 μM; 25μM; 12.5μM; 6 μM; 3 μM; 1.5 μM. […] Cells were incubated 72 h at 37°C in a humidified atmosphere containing 5% CO2 in the cell culture media appropriate for each cell line. Then, the medium was aspirated and 170 μl MTT solution (5mg/ml) was added to each well. Plates were incubated for 2 hours at 37°C, and then plates were centrifuged at 1200 rpm for 3 minutes. The formazan crystals were dissolved in 200 μl DMSO and plates were further agitated on a plate shaker at 300–500 rpm for 10 minutes. Absorbance at 570 nm (with reference wavelenght 650 nm) was measured using a plate reader (Biotek Instruments, Elx-800). Cell viability was calculated as a percentage relative to the control.

Structure (SMILES): Fc1ccc(NC(=S)c2ccc(NC(=S)c3ccc(F)cc3)cc2)cc1 [Compound 18]
- Effect in SRB assay, MCF-7 (MCF-7 cells [1]): strong effect
- Activity in MTT assay (in words), MCF-7 (MCF-7 cells [2]; 72 h): significant activity; also recorded: strong effect
- IC50 (MCF-7 cells [2]; Homo sapiens, MCF7, 72 h, estrogen dependent breast adenocarcinoma, read-out: Cytotoxic activity IC50, MCF-7): 5.07 µM
